This note sets out measurements from patent publication US20160237402A1, “Methods and Compositions for Ex Vivo Generation of Developmentally Competent Eggs from Germ Line Cells Using Autologous Cell Systems” (NORTHEASTERN UNIVERSITY, priority 2013, published 2016).

A value given as a limit tells only on which side of the number the result lay.

In test [1] the test system is FACS-purified Fox12-DsRed-positive cells. Description: Estradiol and progesterone production by FACS-purified Fox12-DsRed-positive cells (ELISA of culture medium). The test is classed as cell-based, mouse. Particulars: FSH 100 ng/ml or 8-br-cAMP 1 mM; cultured 24, 48 or 72 hours; versus vehicle (PBS) control; cells isolated on day 12 of ESC differentiation. On the procedure: FIG. 5A is a graph showing estradiol production by FACS-purified Fox12-DsRed positive cells (2×10^3 cells per well), which spontaneously differentiated in embryonic stem cell cultures, maintained in culture for up to 3 days (FSH, 100 ng/ml; 8-br-cAMP, 1 mM). Data are the mean±SEM of 3 independent cultures (*, P<0.05 versus vehicle control).
FIG. 5B is a graph showing progesterone production by FACS-purified Fox12-DsRed positive cells (2×10^3 cells per well), which spontaneously differentiated in embryonic stem cell cultures, maintained in culture for up to 3 days (FSH, 100 ng/ml; 8-br-cAMP, 1 mM). Data are the mean±SEM of 3 independent cultures (*, P<0.05 versus vehicle control).
To identify and track ovarian somatic cells in differentiating ESC cultures, the expression of the early granulosa cell marker, Fox12, in differentiating ESC cultures was mapped. […] A 739 by region of the Fox12 gene promoter was identified using Genome Vista. The region was isolated from mouse genomic DNA and cloned into the pDsRed2-1 vector (Clontech, Mountain View, Calif.,) or the pLenti6 lentiviral construct containing the complete open reading frame of DsRed (Gateway Lentiviral System; Invitrogen), thus creating a DsRed expression vector under control of the Fox12 gene promoter.
Promoter activity and specificity were verified using mouse granulosa cells as a positive control and 293 cells (Invitrogen) as a negative control. To verify the Fox12 gene promoter-driven DsRed expression, undifferentiated TgOG2 ESCs were stably transfected with the Fox12-pDsRed2-1 construct via electroporation, followed by clonal selection and expansion. Alternatively, ESCs were virally transduced following initiation of differentiation using viral supernatant produced by 293 cells transfected with the Fox12-DsRed lentiviral construct (pLenti6-Fox12-DsRed). Cells were analyzed for expression of DsRed by fluorescence microscopy and isolated by fluorescence-activated cell sorting (FACS).
For FACS, differentiating ESCs were removed from the plate by either 0.25% trypsin-EDTA (prior to day 10 of differentiation) or manually scraped. […] The cells were analyzed and sorted using a FACS Aria flow cytometer (BD Biosciences, San Jose, Calif.).
Estradiol and progesterone concentrations were measured in culture medium from FACS-purified Fox12-DsRed-positive cells that had been re-plated and cultured for 24, 48 or 72 hours in the presence of PBS (vehicle), 100 ng/ml follicle stimulating hormone (FSH; NIDDK, NIH, Bethesda, Md.) or 1 mM 8-bromoadenosine-3′,5′-cyclic monophosphate (8-br-cAMP; Sigma-Aldrich). […]
In general terms: A flow cytometer gives signals particle by particle.

For test [2], the system named is OSC differentiation into oocytes. Description: GCV treatment of transgenic mice with Stra8 promoter-driven HSVtk; counts of oocyte-containing primordial follicles. The class given is in vivo. The procedure: FIGS. 2A-D are graphs that show the OSCs of aged mice lose the ability to support primordial follicle formation. Transgenic mice, ranging from 2-11 months, having an inducible “suicide gene” (herpes simplex virus thymidine kinase or HSVtk) that specifically disrupts OSC differentiation into oocytes only in the presence of the HSVtk pro-drug ganciclovir (GCV), were tested for their ability to lose and regain their oocyte reserves after activation and deactivation of the suicide gene, respectively.
Animals and treatments. Transgenic pStra8-Gfp mice with expression of green fluorescent protein (GFP) driven by the promoter of the meiosis commitment gene, stimulated by retinoic acid gene 8 (Stra8;) mice were generated as described in Imudia et al., Fertil Steril, 100:1451-1458 (2013). Transgenic mice with herpes simplex virus thymidine kinase (HSVtk) expression driven by the Stra8 promoter were generated by replacing the GFP-coding sequence in the pStra8-Gfp construct with cDNA encoding GFP-fused HSVtk and the constructs were then sent to Genoway for generation of the transgenic lines, as described (Imudia et al., Fertil Steril, 100:1451-1458 (2013). For comparative studies, wild type and transgenic siblings from breeding colonies were used in parallel to rule out any potential effect of background strain on the outcomes. For treatments, the HSVtk pro-drug, ganciclovir (GCV; Roche), was dissolved in sterile water at 10 mg/ml, and then diluted in sterile 1×-concentrated phosphate-buffered saline (PBS) for daily dosing (10 mg/kg for 21 days, intraperitoneal injection). Control animals were injected with vehicle (PBS) in parallel.
Oocyte counts. Prior to the start of PBS or GCV injections, 21 days after daily dosing with GCV, and 21 days after ceasing GCV treatment, ovaries were collected from mice at the indicated ages, fixed, embedded in paraffin, and serially sectioned for histomorphometry-based quantification of the number of oocyte-containing primordial follicles, as detailed (Jones and Krohn, J Endocrinol, 21:469-495 (1961); Johnson et al., Nature, 428:145-150 (2004); and Wang and Tilly, Cell Cycle, 9:339-349 (2010)). All samples were assessed in a completely blinded fashion, and reproducibility was independently confirmed with randomly selected slides by a second observer. In all cases, variation in counts between observers was less than 7%.

On to `Nc1ncnc2c1nc(Br)n2[C@@H]1O[C@@H]2COP(=O)(O)O[C@H]2[C@H]1O` [8-br-cAMP, 8-bromoadenosine-3′,5′-cyclic monophosphate], for which, in test [1], the estradiol production result was “significant increase” and the progesterone production entry is on record as “significantly enhance”.
The corresponding values for follicle stimulating hormone [FSH] are “significant increase” and “only 8-br-cAMP was able to significantly enhance”.
`Nc1nc(O)c2ncn(COC(CO)CO)c2n1` [GCV, ganciclovir]: the “response of primordial follicle pool to GCV treatment” value in test [2] (advanced aged mice, 10-11 months of age, 10 mg/kg daily for 21 days, intraperitoneal) was “completely refractory”. Besides, the “primordial follicle reserve after GCV treatment” value in test [2] (middle-age adult mice, 5-6 months of age, 10 mg/kg daily for 21 days, intraperitoneal) is recorded as “reduced primordial follicle reserve”; in test [2] (young adult mice, 2-3 months of age, 10 mg/kg daily for 21 days, intraperitoneal) it was “reduced primordial follicle reserve”. In addition, in test [2] (young adult (2-3 months) and middle-age (5-6 months) mice), the “time for primordial follicle pool to regenerate back to control (PBS, vehicle) levels after ceasing GCV treatment” value was no more than 21 days.
